≈ marks a conversion by molar mass, not a printed value. Like-named read-outs stand apart in the source and are kept apart here.
Assays:
[1] = tested on: Escherichia coli NIHJ JC-2; test: MIC, in vitro antibacterial activity (standard strains); format: cell-based; conditions: NIHJJC2
K. pneumoniae 1-220S = test: as above; format: cell-based; conditions: Klebsiella pneumoniae, 1220S
Pst. microns UPI 5464-1 = test: as above; format: cell-based; conditions: Pst. microns UPI 5464-1, 10^6 cells/ml, Gram +
Shigella sonnei IID 969 = test: as above; format: cell-based; conditions: IID969; Shigella sonnei IID 969, 10^6 cells/ml, Gram -
Procedure: (§1) Minimal inhibitory concentrations (MICs) were determined in accordance with the method recommended by Japan Society of Chemotherapy.

[2] = tested on: Proteus vulgaris IFO 3167; test: as above; format: cell-based; conditions: Proteus vulgaris, IFO3167
S. pneumoniae S-4288 = test: In vivo antibacterial activity against systemic infections in mice; conditions: Streptococcus pneumoniae
Procedure: (§2) The infections were produced by intraperitoneal injection of suspension of the bacterial cells. The compounds were administered orally at an hour after the injection. Five male ICR mice were used for each dosage. […] The efficacy of the present compound are shown in Table 4 in comparison with those of the reference compounds.

P. aeruginosa IID 1210 = test: as above; conditions: Pseudomonas aeruginosa
Procedure: as §2

E. coli ML 4707 = test: as above; conditions: Escherichia coli
Procedure: as §2

S. aureus Smith = test: as above; conditions: Staphylococcus aureus
Procedure: as §2

Bacteroides fragilis 2 = test: Experimental local infection with anaerobic bacteria in granuloma pouches in rats; format: in vivo; conditions: pouch exudate, Mean ± S.D. (n=3)
Procedure: Under ether anesthesia, male Wistar rats (7 weeks old) were injected subcutaneously on the back with 20 ml of germ-free air (sterilized by membrane filtration, 0.45 µm pore size) by means of a syringe. Continuously, an inflammatory reaction was induced by injecting one ml of sterile croton oil solution (1 % in olive oil) into the formed air pouch. After 2 days, the air was removed. On the eighth day, 0.5 ml of Bacteroides fragilis 2 culture (10^6 CFU/ml) were injected into bore granuloma pouches. Each compound was administered orally or subcutaneously at 2 hours after infection. […] During experiment, intake of food and water was free. It was known that the activity of the existing quinolonecarboxylic acid compounds against obligate anaerobic bacteria was very weak. […] This property is also one of excellent characters of the present comound.

[3] = tested on: nalidixic acid-resistant Salmonella typhimurium TA98 strain (nal^r); test: Mutagenicity, reverse mutation assay; conditions: 0.5 µg/plate, S9-mix +, positive control
Excerpt: As for antibacterial agents, assessment of mutagenicity using bacteria is somewhat difficult because of their activity on the test bacteria.

S. marcescens = test: MIC, in vitro antibacterial activity (clinical isolates); format: cell-based; conditions: Serratia marcescens, No. of strains 20
E. faecalis = test: as above; format: cell-based; conditions: Enterococcus faecalis, No. of strains 5
H. influenzae = test: as above; format: cell-based; conditions: Haemophilus influenzae, No. of strains 26
P. vulgaris = test: as above; format: cell-based; conditions: Proteus vulgaris, No. of strains 6
Alcaligenes sp. = test: as above; format: cell-based; conditions: No. of strains 9
P. aeruginosa = test: as above; format: cell-based; conditions: Pseudomonas aeruginosa
B. catarrhalis = test: as above; format: cell-based; conditions: Moraxella catarrhalis
P. maltophilia = test: as above; format: cell-based; conditions: Stenotrophomonas maltophilia, No. of strains 9
MR-S. aureus = test: as above; format: cell-based; conditions: Staphylococcus aureus, No. of strains 46
E. cloacae = test: as above; format: cell-based; conditions: Enterobacter cloacae
Campylobacter jejuni = test: as above; format: cell-based; conditions: No. of strains 20
S. epidermidis = test: as above; format: cell-based; conditions: Staphylococcus epidermidis, No. of strains 10
S. pneumoniae = test: as above; format: cell-based; conditions: Streptococcus pneumoniae
C. freundii = test: as above; format: cell-based; conditions: Citrobacter freundii, No. of strains 9
N. meningitidis = test: as above; format: cell-based; conditions: Neisseria meningitidis, No. of strains 3
N. gonorrhoeae = test: as above; format: cell-based; conditions: Neisseria gonorrhoeae, No. of strains 16
P. mirabilis = test: as above; format: cell-based; conditions: Proteus mirabilis, No. of strains 10
Acinetobacter sp. = test: as above; format: cell-based
M. morganii = test: as above; format: cell-based; conditions: Morganella morganii, No. of strains 8
Bacteroides sp. = test: as above; format: cell-based; conditions: No. of strains 17
S. pyogenes = test: as above; format: cell-based; conditions: Streptococcus pyogenes
S. aureus = test: as above; format: cell-based; conditions: Staphylococcus aureus, No. of strains 21
Procedure: as §1

P. pneumoniae = test: as above; format: cell-based; conditions: No. of strains 25
Procedure: as §1

E. coli = test: as above; format: cell-based; conditions: Escherichia coli, No. of strains 25
Procedure: as §1

S. pneumoniae IID 552 = test: MIC, in vitro antibacterial activity (standard strains); format: cell-based; conditions: Streptococcus pneumoniae, IID552
F. varium KYA 8501 = test: as above; format: cell-based; conditions: Fusobacterium varium, KYA8501
[4] = tested on: Alcaligenes faecalis 0104002; test: as above; format: cell-based; conditions: Alcaligenes faecalis, 0104002
[5] = tested on: Streptococcus pyogenes (S-8); test: as above; format: cell-based; conditions: Streptococcus pyogenes
[6] = tested on: B. thetaiotaomicron (0661); test: as above; format: cell-based; conditions: Bacteroides thetaiotaomicron
[7] = tested on: Klebsiella pneumoniae KY(GN)6445; test: as above; format: cell-based; conditions: Klebsiella pneumoniae
C. perfringens KYA 13123 = test: microbe, parasite or virus in culture; format: cell-based; conditions: Clostridium perfringens, KYA13123
[8] = S4288, S. pneumoniae S-4288 systemic infection (i.p.), male ICR mice, oral administration an hour after infection, read-out: ED50
[9] = IID1210, P. aeruginosa IID 1210 systemic infection (i.p.), male ICR mice, oral administration an hour after infection, read-out: ED50
[10] = ML4707, E. coli ML 4707 systemic infection (i.p.), male ICR mice, oral administration an hour after infection, read-out: ED50

## O=C(O)c1cn(C2CC2)c2cc(N3CCNCC3)c(F)cc2c1=O [CFLX, Ciprofloxacin]
[1]; Escherichia coli NIHJ JC-2, 10^6 cells/ml, Gram -, read-out: MIC
  MIC: ≤ 0.006 µg/mL
K. pneumoniae 1-220S
  MIC: 0.05 µg/mL (≈ 0.151 µM)
Pst. microns UPI 5464-1
  MIC: 0.2 µg/mL
Shigella sonnei IID 969
  MIC: ≤ 0.006 µg/mL
[2]
  MIC: ≤ 0.006 µg/mL
S. pneumoniae S-4288; S4288, po
  ED50: > 100 mg/kg
P. aeruginosa IID 1210; IID1210, po
  ED50: 4.5 mg/kg
E. coli ML 4707; ML4707, po
  ED50: 1.5 mg/kg
S. aureus Smith; po
  ED50: 31 mg/kg

## CO[C@@]1(NC(=O)Cc2cccs2)C(=O)N2C(C(=O)O)=C(COC(N)=O)CS[C@@H]21 [CFX, cefoxitin]
Bacteroides fragilis 2; 50 mg/kg, s.c., 6 hr
  Viable cells count (log) / ml: 3.9 ± 0.25 (log) / ml
Bacteroides fragilis 2; 50 mg/kg, s.c., 24 hr
  Viable cells count (log) / ml: 6.3 ± 0.31 (log) / ml

## CCC[C@@H]1C[C@@H](C(=O)N[C@@H]([C@H]2O[C@H](SC)[C@H](O)[C@@H](O)[C@H]2O)[C@H](C)Cl)N(C)C1 [CLDM, clindamycin]
Bacteroides fragilis 2; 25 mg/kg, s.c., 6 hr
  Viable cells count (log) / ml: 4.6 ± 0.058 (log) / ml
Bacteroides fragilis 2; 25 mg/kg, s.c., 24 hr
  Viable cells count (log) / ml: 6.4 ± 0.38 (log) / ml

## Nc1ccc2cc3ccccc3cc2c1 [Example 2AA, 2-Aminoanthracene]
[3]
  His^+ revertants per plate: 277

## Cc1ncc([N+](=O)[O-])n1CCO [MND, metronidazole]
Bacteroides fragilis 2; 50 mg/kg, p.o., 6 hr
  Viable cells count (log) / ml: 5.2 ± 0.10 (log) / ml
Bacteroides fragilis 2; 50 mg/kg, p.o., 24 hr
  Viable cells count (log) / ml: 5.7 ± 0.60 (log) / ml

## CCn1cc(C(=O)O)c(=O)c2cc(F)c(N3CCNCC3)cc21 [NFLX, Norfloxacin]
S. marcescens
  MIC: 0.1 µg/mL (≈ 0.313 µM)
E. faecalis
  MIC: 6.25 µg/mL (≈ 19.6 µM)
H. influenzae
  MIC: 0.2 µg/mL (≈ 0.626 µM)
P. vulgaris
  MIC: 0.05 µg/mL (≈ 0.157 µM)
Alcaligenes sp.
  MIC: 100 µg/mL (≈ 313 µM)
P. aeruginosa
  MIC: 1.56 µg/mL (≈ 4.89 µM)
B. catarrhalis
  MIC: 1.56 µg/mL (≈ 4.89 µM)
P. maltophilia
  MIC: 25 µg/mL (≈ 78.3 µM)
MR-S. aureus
  MIC: 25 µg/mL (≈ 78.3 µM)
E. cloacae
  MIC: 0.1 µg/mL (≈ 0.313 µM)
Campylobacter jejuni
  MIC: 0.78 µg/mL (≈ 2.44 µM)
S. epidermidis
  MIC: 0.78 µg/mL (≈ 2.44 µM)
S. pneumoniae
  MIC: 12.5 µg/mL (≈ 39.1 µM)
C. freundii
  MIC: 0.39 µg/mL (≈ 1.22 µM)
N. meningitidis
  MIC: 0.05 µg/mL (≈ 0.157 µM)
N. gonorrhoeae
  MIC: 0.1 µg/mL (≈ 0.313 µM)
P. mirabilis
  MIC: 0.1 µg/mL (≈ 0.313 µM)
Acinetobacter sp.; Acinetobacter
  MIC: 12.5 µg/mL (≈ 39.1 µM)
M. morganii
  MIC: 0.05 µg/mL (≈ 0.157 µM)
Bacteroides sp.
  MIC: 50 µg/mL (≈ 157 µM)
S. pneumoniae S-4288; [8]
  ED50: > 100 mg/kg
P. aeruginosa IID 1210; [9]
  ED50: 18.9 mg/kg
E. coli ML 4707; [10]
  ED50: 8.9 mg/kg
S. pyogenes
  MIC: 1.56 µg/mL (≈ 4.89 µM)
S. aureus
  MIC: 1.56 µg/mL (≈ 4.89 µM)
P. pneumoniae
  MIC: 0.78 µg/mL (≈ 2.44 µM)
E. coli
  MIC: 0.1 µg/mL (≈ 0.313 µM)

## CC1COc2c(N3CCN(C)CC3)c(F)cc3c(=O)c(C(=O)O)cn1c23 (stereo not drawn) [OFLX, Ofloxacin]
S. marcescens
  MIC: 0.2 µg/mL (≈ 0.553 µM)
E. faecalis
  MIC: 3.13 µg/mL (≈ 8.66 µM)
H. influenzae
  MIC: 0.1 µg/mL (≈ 0.277 µM)
P. vulgaris
  MIC: 0.1 µg/mL (≈ 0.277 µM)
Alcaligenes sp.
  MIC: 6.25 µg/mL (≈ 17.3 µM)
P. aeruginosa; clinical isolates P. aeruginosa, No. of strains 27, read-out: MIC
  MIC: 3.13 µg/mL (≈ 8.66 µM)
B. catarrhalis; clinical isolates B. catarrhalis, No. of strains 21, read-out: MIC
  MIC: 0.2 µg/mL (≈ 0.553 µM)
P. maltophilia
  MIC: 6.25 µg/mL (≈ 17.3 µM)
MR-S. aureus
  MIC: 1.56 µg/mL (≈ 4.32 µM)
E. cloacae
  MIC: 0.1 µg/mL (≈ 0.277 µM)
Campylobacter jejuni
  MIC: 0.39 µg/mL (≈ 1.08 µM)
S. epidermidis
  MIC: 0.39 µg/mL (≈ 1.08 µM)
S. pneumoniae; clinical isolates S. pneumoniae, No. of strains 6, read-out: MIC
  MIC: 3.13 µg/mL (≈ 8.66 µM)
C. freundii
  MIC: 0.39 µg/mL (≈ 1.08 µM)
N. meningitidis
  MIC: 0.025 µg/mL (≈ 0.0692 µM)
N. gonorrhoeae
  MIC: 0.05 µg/mL (≈ 0.138 µM)
P. mirabilis
  MIC: 0.2 µg/mL (≈ 0.553 µM)
Acinetobacter sp.; clinical isolates Acinetobacter sp., No. of strains 13, read-out: MIC
  MIC: 3.13 µg/mL (≈ 8.66 µM)
M. morganii
  MIC: 0.1 µg/mL (≈ 0.277 µM)
Bacteroides sp.
  MIC: 3.13 µg/mL (≈ 8.66 µM)
S. pneumoniae S-4288; [8]
  ED50: > 100 mg/kg
P. aeruginosa IID 1210; [9]
  ED50: 12.1 mg/kg
E. coli ML 4707; [10]
  ED50: 2.1 mg/kg
S. aureus Smith; S. aureus Smith systemic infection (i.p.), male ICR mice, oral administration an hour after infection, read-out: ED50
  ED50: 17 mg/kg
S. pyogenes; clinical isolates S. pyogenes, No. of strains 6, read-out: MIC
  MIC: 1.56 µg/mL (≈ 4.32 µM)
S. aureus
  MIC: 0.39 µg/mL (≈ 1.08 µM)
P. pneumoniae
  MIC: 0.78 µg/mL (≈ 2.16 µM)
E. coli
  MIC: 0.1 µg/mL (≈ 0.277 µM)

## O=C(O)c1cn(C2CC2)c2c(F)c(N3CCNCC3)c(F)cc2c1=O [Ref.1, 1-Cyclopropyl-6,8-difluoro-1,4-dihydro-4-oxo-7-(1-piperazinyl)-3-quinoline-carboxylic acid]
S. pneumoniae IID 552
  MIC: 0.78 µg/mL (≈ 2.23 µM)
[1]; Escherichia coli
  MIC: ≤ 0.006 µg/mL
F. varium KYA 8501
  MIC: 3.13 µg/mL (≈ 8.96 µM)
[4]
  MIC: 0.025 µg/mL (≈ 0.0716 µM)
K. pneumoniae 1-220S
  MIC: 0.05 µg/mL (≈ 0.143 µM)
Shigella sonnei IID 969
  MIC: ≤ 0.006 µg/mL
[5]
  MIC: 0.39 µg/mL (≈ 1.12 µM)
[6]
  MIC: 3.13 µg/mL (≈ 8.96 µM)
[7]
  MIC: 0.0125 µg/mL (≈ 0.0358 µM)
C. perfringens KYA 13123
  MIC: 0.39 µg/mL (≈ 1.12 µM)
